Data published in patent US8552163B2, “Liver-targeting agents and their synthesis” (Johns Hopkins University, priority 2009, dated 2013).

Key:
ASGPR = target: T1, ASGPR (Mus musculus, UniProt P24721+P34927); assay: Competitive binding assay with Eu-ASOR on murine hepatocyte (time-resolved fluorometry); conditions: for binding to ASGPR compared with that of YEE or YDD: relative to YEE or YDD, from the IC50 data of Table 1
T1 construct: host or cells: murine hepatocytes (purchased, plated in 24-well plates)
T1 sequence (P34927 1-284): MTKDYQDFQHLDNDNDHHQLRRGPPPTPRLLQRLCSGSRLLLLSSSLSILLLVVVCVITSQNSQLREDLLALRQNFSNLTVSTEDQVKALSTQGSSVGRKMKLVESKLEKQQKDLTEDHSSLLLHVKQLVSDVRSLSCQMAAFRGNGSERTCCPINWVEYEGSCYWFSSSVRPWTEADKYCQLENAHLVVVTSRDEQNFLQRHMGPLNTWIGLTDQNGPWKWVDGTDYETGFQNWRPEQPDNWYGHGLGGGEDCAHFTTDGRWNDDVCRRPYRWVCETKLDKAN
T1 sequence (P24721 1-301): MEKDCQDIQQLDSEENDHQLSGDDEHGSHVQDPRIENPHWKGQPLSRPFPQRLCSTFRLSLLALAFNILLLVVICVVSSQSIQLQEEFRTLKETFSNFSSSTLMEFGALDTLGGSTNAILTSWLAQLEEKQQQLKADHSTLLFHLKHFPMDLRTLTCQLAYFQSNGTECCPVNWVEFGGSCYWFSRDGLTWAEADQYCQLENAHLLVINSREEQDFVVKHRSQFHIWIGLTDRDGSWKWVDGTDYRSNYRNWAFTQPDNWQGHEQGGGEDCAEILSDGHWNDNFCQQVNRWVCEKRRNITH
Method: With Eu-asialo-orosomucoid (Eu-ASOR) as a reference material, the binding affinity of the multivalent glyco-ligands (DCM-Lys(ah-GalNAc)3, DCM-Lys(GahGalNAc)3, DCM-Lys(ahLac)3, AHA-Asp[DCM-Lys(ahLac)3]2) and murine hepatocyte can be determined by competitive assay to obtain IC50 (concentration of 50% inhibition), and the lower the IC50 is, the higher the binding affinity. The murine hepatocyte (Lonza Biotechnology Company, Walkersville, Md.) is plated in a 24-well plate in advance, and the reaction occurs in each well, into which (i) Eu-ASOR 10 nM (ii) hepatocyte basic medium with 5 mM calcium chloride, and (iii) five different concentrations of multivalent ligands of 1 μM-0.8 nM are added. After culturing with shaking for 1 hr in the cold, the unbound ligands are removed by washing with the hepatocyte basic medium containing calcium chloride. Time-resolved fluorometry (TRF) is performed, using an enhancement solution (15 μM β-naphthoyl trifluoroacetone, 50 μM tri-n-octyl-phosphine oxide, 0.1% triton X-100 in 0.1 M acetic acid, titrated with potassium hydrogen phthalate to pH 3.2). The enhancement solution reacts with Eu^3+ to form an Eu chelate, which can emit at 615 nm when excited at 340 nm. With the logarithm of the concentration of saccharide chain peptide as X axis, the emitted fluorescence value as Y axis, the fluorescence value without adding glycopeptide being set as 100%, the IC50 values of each ligand can be calculated accordingly.

[1] = as first reported by Lee (1983); cited from earlier work

## NCCCCCC(=O)NC(CC(=O)NCCCCC(C(=O)NCCCCCCOC1OC(CO)C(OC2OC(CO)C(O)C(O)C2O)C(O)C1O)N(CC(=O)NCCCCCCOC1OC(CO)C(OC2OC(CO)C(O)C(O)C2O)C(O)C1O)CC(=O)NCCCCCCOC1OC(CO)C(OC2OC(CO)C(O)C(O)C2O)C(O)C1O)C(=O)NCCCCC(C(=O)NCCCCCCOC1OC(CO)C(OC2OC(CO)C(O)C(O)C2O)C(O)C1O)N(CC(=O)NCCCCCCOC1OC(CO)C(OC2OC(CO)C(O)C(O)C2O)C(O)C1O)CC(=O)NCCCCCCOC1OC(CO)C(OC2OC(CO)C(O)C(O)C2O)C(O)C1O (stereo not shown) [AHA-Asp[DCM-Lys(ahLac)3]2]
ASGPR
  binding to ASGPR compared with that of YEE or YDD: the same binding strength as that of YEE or YDD

## CC(=O)N[C@H]1[C@H](OCCCCCCNC(=O)CNC(=O)CN(CC(=O)NCC(=O)NCCCCCCO[C@@H]2O[C@H](CO)[C@H](O)[C@H](O)[C@H]2NC(C)=O)[C@@H](CCCCN)C(=O)NCC(=O)NCCCCCCO[C@@H]2O[C@H](CO)[C@H](O)[C@H](O)[C@H]2NC(C)=O)O[C@H](CO)[C@H](O)[C@@H]1O [DCM-Lys(GahGalNAc)3]
ASGPR; competition with 10 nM Eu-ASOR, murine hepatocyte, 5 mM calcium chloride, 1 hr in the cold, read-out: IC50 (concentration of 50% inhibition), binding strength of saccharide chains and murine hepatocyte
  IC50: 1 nM
ASGPR
  binding to ASGPR compared with that of YEE or YDD: 10 times

## CC(=O)N[C@H]1[C@H](OCCCCCCNC(=O)CC[C@H](NC(=O)CC[C@H](NC(=O)[C@@H](N)Cc2ccc(O)cc2)C(=O)NCCCCCCO[C@@H]2O[C@H](CO)[C@H](O)[C@H](O)[C@H]2NC(C)=O)C(=O)NCCCCCCO[C@@H]2O[C@H](CO)[C@H](O)[C@H](O)[C@H]2NC(C)=O)O[C@H](CO)[C@H](O)[C@@H]1O [YEE(ahGalNAc)3]
[1]
  solubility: poor solubility
